Calls of active or inactive are those of the source. Unless noted, the rule behind the calls is not given here.
Legend:
[1] = target: 5-hydroxytryptamine receptor 4 (Homo sapiens, UniProt Q13639); assay: Late-stage radioligand binding dose response assay to identify inhibitors of NADPH oxidase 1 (NOX1): PDSP screen Ki. [Related pubchem assays (depositor defined):AID1792, AID1796, AID1823, AID2532, AID2538, AID2539, AID2541, AID2545, AID2556, AID2664, AID2752, AID2773, AID434992, AID434993, AID434997, AID435002, AID435009, AID435013, AID463255 …
NADPH oxidase 1 = NADPH oxidase 1 (Homo sapiens, UniProt Q9Y5S8); assay: Luminescence-based cell-based dose response assay to identify inhibitors of NADPH oxidase 1 (NOX1).; format: functional
[2] = target: Alpha-2A adrenergic receptor (Homo sapiens, UniProt P08913); assay: Late-stage radioligand binding dose response assay to identify inhibitors of NADPH oxidase 1 (NOX1): PDSP screen Ki. [Related pubchem assays (depositor defined):AID1792, AID1796, AID1823, AID2532, AID2538, AID2539, AID2541, AID2545, AID2556, AID2664, AID2752, AID2773, AID434992, AID434993, AID434997, AID435002, AID435009, AID435013, AID463255 …
[3] = HEp-2 cell cytotoxicity, dose response, cytotoxicity control for RSV inhibitor project, HTS (AID 2410); format: functional; conditions: human respiratory syncytial virus
[4] = target: Alpha-2B adrenergic receptor (Homo sapiens, UniProt P18089); assay: Late-stage radioligand binding dose response assay to identify inhibitors of NADPH oxidase 1 (NOX1): PDSP screen Ki. [Related pubchem assays (depositor defined):AID1792, AID1796, AID1823, AID2532, AID2538, AID2539, AID2541, AID2545, AID2556, AID2664, AID2752, AID2773, AID434992, AID434993, AID434997, AID435002, AID435009, AID435013, AID463255 …
[5] = target: Sigma non-opioid intracellular receptor 1 (Homo sapiens, UniProt Q99720); assay: as above
[6] = target: 5-hydroxytryptamine receptor 2C (Homo sapiens, UniProt P28335); assay: as above
[7] = target: Muscarinic acetylcholine receptor M3 (Homo sapiens, UniProt P20309); assay: as above
D(3) dopamine receptor = D(3) dopamine receptor (Homo sapiens, UniProt P35462); assay: as above
[8] = cytotoxicity toward NIH3T3 fibroblasts, dose response, counter-screen, cell-based, ATP luminescence, mouse fibroblasts (AID 2010); format: functional;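 also: cells exposed to compound for about 90 hours before reading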
[9] = target: Muscarinic acetylcholine receptor M5 (Homo sapiens, UniProt P08912); assay: Late-stage radioligand binding dose response assay to identify inhibitors of NADPH oxidase 1 (NOX1): PDSP screen Ki. [Related pubchem assays (depositor defined):AID1792, AID1796, AID1823, AID2532, AID2538, AID2539, AID2541, AID2545, AID2556, AID2664, AID2752, AID2773, AID434992, AID434993, AID434997, AID435002, AID435009, AID435013, AID463255 …
[10] = target: Alpha-2C adrenergic receptor (Homo sapiens, UniProt P18825); assay: as above
Oxytocin receptor = Oxytocin receptor (Homo sapiens, UniProt P30559); assay: as above
[11] = target: Sodium-dependent serotonin transporter (Homo sapiens, UniProt P31645); assay: as above
[12] = target: 5-hydroxytryptamine receptor 2B (Homo sapiens, UniProt P41595); assay: as above
[13] = inhibitors of intracellular T. cruzi replication, confirmation, NIH3T3 host cells, beta-gal luminescence (AID 2044); format: functional, cell-based;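 also: intracellular parasites grown in NIH/3T3 mouse fibroblasts as host cells; luminescent beta-galactosidase reporter signal from transgenic T. cruzi replicating inside host cells; inhibitors lower the luminescence signal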
[14] = target: Glutamate receptor ionotropic, kainate 5 (Rattus norvegicus, UniProt Q63273); assay: Late-stage radioligand binding dose response assay to identify inhibitors of NADPH oxidase 1 (NOX1): PDSP screen Ki. [Related pubchem assays (depositor defined):AID1792, AID1796, AID1823, AID2532, AID2538, AID2539, AID2541, AID2545, AID2556, AID2664, AID2752, AID2773, AID434992, AID434993, AID434997, AID435002, AID435009, AID435013, AID463255 …
[15] = target: Sodium-dependent noradrenaline transporter (Homo sapiens, UniProt P23975); assay: as above
[16] = target: Muscarinic acetylcholine receptor M4 (Homo sapiens, UniProt P08173); assay: as above
[17] = target: DNA dC->dU-editing enzyme APOBEC-3G (Homo sapiens, UniProt Q9HC16); format: functional;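 also: Dose-response counterscreen measuring inhibition of APOBEC3G DNA deaminase activity, run while confirming APOBEC3A inhibitors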
[18] = target: DNA dC->dU-editing enzyme APOBEC-3A (Homo sapiens, UniProt P31941); assay: Dose Response confirmation of small molecule APOBEC3A DNA Deaminase Inhibitors via a fluorescence-based single-stranded DNA deaminase assay. [Related pubchem assays (depositor defined):AID493011, AID493024]; format: functional
Bcl-2-like protein 10 = Bcl-2-like protein 10 (Homo sapiens, UniProt Q9HD36); assay: displacers of TR3 peptide from Bcl-B, primary screen, selectivity assay for Bfl-1 inhibitor project, biochemical, fluorescence polarization, FITC-TR3 peptide (AID 748);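 also: fluorescence polarization from a fluorescein-labelled TR3 peptide binding purified Bcl-B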
Saccharomyces cerevisiae = assay: NALP1 inhibitor project selectivity study, Caspase-1/ASC signal blockade IC50 in S. cerevisiae (AID 488863); format: functional, organism-based
[19] = target: NACHT, LRR and PYD domains-containing protein 1 (Homo sapiens, UniProt Q9C000); assay: NALP1 inhibitors in yeast, dose response, luminescent (AID 488860); format: functional
[20] = target: Cystic fibrosis transmembrane conductance regulator/Golgi-associated PDZ and coiled-coil motif-containing protein (Homo sapiens, UniProt P13569+Q9HD26); assay: CAL PDZ peptide-binding inhibitors, dose response, biochemical, fluorescence polarization, Cerulean-tagged CAL PDZ, cherry-picks (AID 504773)

Sequence of Sigma non-opioid intracellular receptor 1 (Q99720 whole entry): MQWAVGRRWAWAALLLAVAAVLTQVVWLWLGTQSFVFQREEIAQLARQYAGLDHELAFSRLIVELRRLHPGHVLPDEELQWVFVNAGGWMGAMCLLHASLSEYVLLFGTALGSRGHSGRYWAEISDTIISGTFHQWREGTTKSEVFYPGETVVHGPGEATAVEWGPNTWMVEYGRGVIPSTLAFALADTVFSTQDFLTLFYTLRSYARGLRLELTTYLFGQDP
Sequence of Muscarinic acetylcholine receptor M5 (P08912 whole entry): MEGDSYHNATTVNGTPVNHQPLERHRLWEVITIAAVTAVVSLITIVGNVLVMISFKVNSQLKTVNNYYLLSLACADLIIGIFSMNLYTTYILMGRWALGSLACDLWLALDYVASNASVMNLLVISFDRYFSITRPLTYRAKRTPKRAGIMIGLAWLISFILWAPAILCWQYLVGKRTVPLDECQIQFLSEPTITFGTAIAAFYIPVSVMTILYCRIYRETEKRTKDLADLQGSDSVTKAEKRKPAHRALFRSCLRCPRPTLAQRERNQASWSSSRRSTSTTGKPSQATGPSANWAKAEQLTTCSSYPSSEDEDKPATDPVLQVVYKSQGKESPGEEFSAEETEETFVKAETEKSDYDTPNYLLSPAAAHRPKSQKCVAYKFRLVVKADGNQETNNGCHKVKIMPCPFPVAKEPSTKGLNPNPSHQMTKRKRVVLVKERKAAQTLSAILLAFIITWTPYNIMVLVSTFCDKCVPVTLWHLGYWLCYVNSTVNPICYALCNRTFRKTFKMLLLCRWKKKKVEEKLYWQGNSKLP
Sequence of Bcl-2-like protein 10 (Q9HD36 whole entry): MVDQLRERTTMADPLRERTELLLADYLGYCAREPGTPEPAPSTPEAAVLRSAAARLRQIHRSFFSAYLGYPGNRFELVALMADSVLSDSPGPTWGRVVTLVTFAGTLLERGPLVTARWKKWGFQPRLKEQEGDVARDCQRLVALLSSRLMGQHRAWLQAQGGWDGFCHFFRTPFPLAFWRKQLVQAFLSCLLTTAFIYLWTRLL
Sequence of NACHT, LRR and PYD domains-containing protein 1 (Q9C000 1-1212 limits assumed): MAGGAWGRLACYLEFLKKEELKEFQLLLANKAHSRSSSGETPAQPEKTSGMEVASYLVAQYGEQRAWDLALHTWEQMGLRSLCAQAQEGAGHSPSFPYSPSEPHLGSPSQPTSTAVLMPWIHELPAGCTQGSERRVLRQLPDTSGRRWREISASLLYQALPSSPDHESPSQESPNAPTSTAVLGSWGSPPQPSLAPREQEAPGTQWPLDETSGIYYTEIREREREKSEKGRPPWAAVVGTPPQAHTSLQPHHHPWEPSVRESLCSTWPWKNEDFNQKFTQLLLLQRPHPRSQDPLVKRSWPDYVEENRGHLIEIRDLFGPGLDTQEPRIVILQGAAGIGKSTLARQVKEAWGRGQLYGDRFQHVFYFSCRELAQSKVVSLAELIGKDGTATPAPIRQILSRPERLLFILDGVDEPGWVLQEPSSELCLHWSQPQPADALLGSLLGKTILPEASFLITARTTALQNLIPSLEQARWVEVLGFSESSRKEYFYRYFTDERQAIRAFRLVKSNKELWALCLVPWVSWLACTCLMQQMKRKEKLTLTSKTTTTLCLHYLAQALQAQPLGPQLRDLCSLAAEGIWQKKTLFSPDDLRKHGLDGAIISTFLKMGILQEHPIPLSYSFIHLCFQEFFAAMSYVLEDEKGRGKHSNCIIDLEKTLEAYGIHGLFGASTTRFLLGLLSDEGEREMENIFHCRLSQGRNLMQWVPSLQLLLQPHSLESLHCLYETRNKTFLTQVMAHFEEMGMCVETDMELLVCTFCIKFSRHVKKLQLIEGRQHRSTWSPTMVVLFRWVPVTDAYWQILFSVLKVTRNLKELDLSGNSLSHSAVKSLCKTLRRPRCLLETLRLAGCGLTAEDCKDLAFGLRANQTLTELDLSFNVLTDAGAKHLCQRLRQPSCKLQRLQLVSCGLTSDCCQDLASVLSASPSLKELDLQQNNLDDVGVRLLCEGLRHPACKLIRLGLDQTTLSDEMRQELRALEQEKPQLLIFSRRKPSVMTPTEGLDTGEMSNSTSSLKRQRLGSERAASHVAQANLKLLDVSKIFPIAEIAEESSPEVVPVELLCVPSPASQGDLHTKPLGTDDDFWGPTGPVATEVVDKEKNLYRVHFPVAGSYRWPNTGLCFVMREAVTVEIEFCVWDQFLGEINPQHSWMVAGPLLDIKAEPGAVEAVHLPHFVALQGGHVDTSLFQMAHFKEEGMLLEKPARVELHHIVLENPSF
Sequence of NACHT, LRR and PYD domains-containing protein 1 (Q9C000 1213-1473 limits assumed): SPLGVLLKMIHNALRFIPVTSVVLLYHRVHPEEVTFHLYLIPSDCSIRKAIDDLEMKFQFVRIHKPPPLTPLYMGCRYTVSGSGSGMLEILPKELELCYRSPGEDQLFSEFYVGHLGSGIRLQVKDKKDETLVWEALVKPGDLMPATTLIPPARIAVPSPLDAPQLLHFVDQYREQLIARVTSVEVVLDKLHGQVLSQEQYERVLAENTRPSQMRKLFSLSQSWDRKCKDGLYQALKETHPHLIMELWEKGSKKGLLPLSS
Sequence of DNA dC->dU-editing enzyme APOBEC-3G (Q9HC16 whole entry): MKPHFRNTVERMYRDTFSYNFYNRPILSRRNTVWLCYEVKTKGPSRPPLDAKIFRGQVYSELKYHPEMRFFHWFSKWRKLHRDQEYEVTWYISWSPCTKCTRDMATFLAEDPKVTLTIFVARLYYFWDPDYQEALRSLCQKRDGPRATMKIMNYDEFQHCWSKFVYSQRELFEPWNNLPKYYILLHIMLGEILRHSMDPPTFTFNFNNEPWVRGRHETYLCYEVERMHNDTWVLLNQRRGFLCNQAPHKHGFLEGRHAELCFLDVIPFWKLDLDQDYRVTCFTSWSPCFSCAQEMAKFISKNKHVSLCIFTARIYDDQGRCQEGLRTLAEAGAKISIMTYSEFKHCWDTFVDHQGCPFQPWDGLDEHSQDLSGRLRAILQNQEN
Sequence of Alpha-2A adrenergic receptor (P08913 whole entry): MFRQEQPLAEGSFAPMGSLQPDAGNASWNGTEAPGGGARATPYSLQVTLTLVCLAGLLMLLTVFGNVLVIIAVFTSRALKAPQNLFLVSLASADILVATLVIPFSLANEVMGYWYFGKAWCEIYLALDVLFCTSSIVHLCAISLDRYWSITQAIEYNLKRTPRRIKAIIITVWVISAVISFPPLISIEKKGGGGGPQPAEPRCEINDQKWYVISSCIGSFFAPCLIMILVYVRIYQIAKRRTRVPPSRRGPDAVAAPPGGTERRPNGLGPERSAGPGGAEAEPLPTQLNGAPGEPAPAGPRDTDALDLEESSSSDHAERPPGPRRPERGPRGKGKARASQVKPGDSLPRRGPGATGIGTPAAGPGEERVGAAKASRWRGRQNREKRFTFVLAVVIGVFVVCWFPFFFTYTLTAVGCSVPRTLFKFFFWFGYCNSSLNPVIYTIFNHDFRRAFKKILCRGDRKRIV
Sequence of 5-hydroxytryptamine receptor 2C (P28335 whole entry): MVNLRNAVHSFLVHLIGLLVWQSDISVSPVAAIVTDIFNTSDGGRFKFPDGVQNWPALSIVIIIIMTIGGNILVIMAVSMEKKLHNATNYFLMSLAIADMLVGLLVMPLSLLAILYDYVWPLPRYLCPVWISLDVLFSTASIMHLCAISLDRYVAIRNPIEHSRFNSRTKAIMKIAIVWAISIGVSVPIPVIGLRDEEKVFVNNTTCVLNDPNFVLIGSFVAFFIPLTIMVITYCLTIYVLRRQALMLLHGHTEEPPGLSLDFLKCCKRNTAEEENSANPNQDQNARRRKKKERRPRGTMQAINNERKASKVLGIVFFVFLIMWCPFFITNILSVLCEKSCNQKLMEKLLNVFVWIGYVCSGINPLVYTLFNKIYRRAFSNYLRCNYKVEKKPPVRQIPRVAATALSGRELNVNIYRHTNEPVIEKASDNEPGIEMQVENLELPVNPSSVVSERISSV
Sequence of DNA dC->dU-editing enzyme APOBEC-3A (P31941 whole entry): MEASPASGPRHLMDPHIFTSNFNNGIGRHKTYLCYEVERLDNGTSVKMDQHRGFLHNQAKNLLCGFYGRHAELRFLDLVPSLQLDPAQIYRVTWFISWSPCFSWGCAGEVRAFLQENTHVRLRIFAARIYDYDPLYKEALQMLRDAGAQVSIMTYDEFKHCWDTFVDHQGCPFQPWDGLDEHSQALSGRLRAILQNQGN
Sequence of Muscarinic acetylcholine receptor M3 (P20309 whole entry): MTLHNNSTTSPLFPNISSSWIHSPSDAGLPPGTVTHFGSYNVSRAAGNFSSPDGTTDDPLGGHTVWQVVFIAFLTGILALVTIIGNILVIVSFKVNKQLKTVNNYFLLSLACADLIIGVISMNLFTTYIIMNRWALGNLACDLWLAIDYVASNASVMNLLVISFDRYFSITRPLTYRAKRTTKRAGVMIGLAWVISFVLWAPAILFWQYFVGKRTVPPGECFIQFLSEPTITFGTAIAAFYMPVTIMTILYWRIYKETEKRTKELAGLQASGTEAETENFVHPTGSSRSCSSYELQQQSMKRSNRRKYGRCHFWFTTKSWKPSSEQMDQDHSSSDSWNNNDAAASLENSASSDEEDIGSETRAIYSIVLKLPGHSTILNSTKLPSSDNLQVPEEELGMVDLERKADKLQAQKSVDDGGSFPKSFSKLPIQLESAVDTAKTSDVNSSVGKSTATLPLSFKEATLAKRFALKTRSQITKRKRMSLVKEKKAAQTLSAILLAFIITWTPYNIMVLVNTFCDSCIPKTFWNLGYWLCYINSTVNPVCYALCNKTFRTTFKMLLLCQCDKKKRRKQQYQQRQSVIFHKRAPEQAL
Sequence of D(3) dopamine receptor (P35462 whole entry): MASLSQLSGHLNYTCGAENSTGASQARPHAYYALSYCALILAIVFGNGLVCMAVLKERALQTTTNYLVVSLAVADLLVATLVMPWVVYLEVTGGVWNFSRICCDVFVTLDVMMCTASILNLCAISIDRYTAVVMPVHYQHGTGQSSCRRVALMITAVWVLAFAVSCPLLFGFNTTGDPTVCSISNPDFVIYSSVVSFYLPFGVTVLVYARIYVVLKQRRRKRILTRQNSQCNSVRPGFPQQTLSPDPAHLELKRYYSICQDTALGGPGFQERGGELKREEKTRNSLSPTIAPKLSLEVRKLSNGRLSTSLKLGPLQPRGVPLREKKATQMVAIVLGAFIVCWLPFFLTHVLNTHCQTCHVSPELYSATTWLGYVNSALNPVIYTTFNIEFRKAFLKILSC

Compound: CN1c2ccccc2Sc2cc(N)ccc21
- Ki [1]: > 10 µM (inactive)
- IC50 (NADPH oxidase 1): 0.044 µM (active)
- Ki [2]: 6.92 µM (active)
- CC50 [3]: 27.1 µM (active)
- Ki [4]: 2.72 µM (active)
- Ki [5]: > 10 µM (inactive)
- Ki [6]: 2.96 µM (active)
- Ki [7]: 10 µM (inactive)
- Ki (D(3) dopamine receptor): 9.06 µM (active)
- EC50 [8]: > 60 µM (not active)
- Ki [9]: > 10 µM (inactive)
- Ki [10]: 5.76 µM (active)
- Ki (Oxytocin receptor): > 10 µM (inactive)
- Ki [11]: 10 µM (active)
- Ki [12]: 0.556 µM (active)
- EC50 [13]: 1.27 µM (active)
- Ki [14]: > 10 µM (inactive)
- Ki [15]: 3.94 µM (active)
- Ki [16]: > 10 µM (inactive)

Compound: CCC1=[N+](C)CCn2c(C)ccc21
- IC50 [17]: 1.32 µM (active)
- IC50 [18]: 1.51 µM (active)
- IC50 (Bcl-2-like protein 10): > 100 µM (inactive)

Compound: CCCCC(=O)Nc1ccc(C(=O)NNC(=S)NC(=O)c2ccco2)cc1
- IC50 (Saccharomyces cerevisiae): 18.8 µM (active)
- IC50 [19]: 25.7 µM (active)

Compound: O=C1OC(c2ccccc2)(c2ccccc2)c2ccccc21
- AC50 [20]: 17.3 µM (active)
